From paper PMC8424217 (The Journal of Biological Chemistry, 2021)
Peptide text beside a SMILES is read from it. * marks the point of attachment. Palmitoyl = CCCCCCCCCCCCCCCC(=O)*

How the values were obtained:
[1] = Circular dichroism; format: physicochemical; conditions: peptide 0.2 mg mL^−1, 20 °C
Protocol: Circular dichroism (CD) analyses were performed in a JASCO J-815 (JAPAN Spectroscopy & Chromatography Technology) spectropolarimeter coupled to a temperature controller Peltier. Samples were dissolved at 0.2 mg mL^−1 in either water, 0.5 mg mL^−1 DPC (dodecylphophocholine), 0.1 mg mL^−1 SDS (sodium dodecyl sulfate), or TFE (2,2,2-trifluoroethanol) aqueous solutions at concentrations of 20%, 50%, and 80%. The CD spectra were recorded in the measured range of 200–250 nm using a scan speed of 50 nm min^−1, and the baseline was corrected by subtraction of the solvent spectrum. The temperature was set to 20 °C.

[2] = target: T1, hUT (Homo sapiens, UniProt Q9UKP6); assay: β-arrestin 2 conformational change, BRET biosensor, HEK 293-hUT cells; format: cell-based; design: expressed in transfected cells; conditions: 15 min at RT
T1 sequence (Q9UKP6 1-389): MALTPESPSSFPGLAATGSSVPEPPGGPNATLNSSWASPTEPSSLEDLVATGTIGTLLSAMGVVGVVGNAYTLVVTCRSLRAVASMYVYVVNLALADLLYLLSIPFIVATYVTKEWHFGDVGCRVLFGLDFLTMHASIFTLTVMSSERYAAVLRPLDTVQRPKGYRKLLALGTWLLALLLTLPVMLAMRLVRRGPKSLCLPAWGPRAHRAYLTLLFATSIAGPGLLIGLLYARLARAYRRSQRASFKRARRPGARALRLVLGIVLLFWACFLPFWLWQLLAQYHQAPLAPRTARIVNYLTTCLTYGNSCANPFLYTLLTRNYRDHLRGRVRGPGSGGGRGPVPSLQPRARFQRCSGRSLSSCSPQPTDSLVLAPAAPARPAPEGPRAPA
Protocol: (§1) Figure 6 Signaling signature of hUT-pepducins following hUT receptor activation. […] Each curve represents mean ± SEM of at least three independent concentration-response experiments performed in triplicate.
HEK 293-hUT cells were grown in DMEM culture media supplemented with 10% foetal bovine serum, HEPES, sodium pyruvate, and G418 (200 μg mL^−1). Passages were performed when cells reached 80% of confluency. Cells were initially plated in 96-well plates at a density of 10,000 cells/well. The following day, the medium is replaced with DMEM culture media supplemented with 2.5% foetal bovine serum (FBS), and 12 h later, cells were transiently transfected with 25 ng/well of a Gq-polycistronic, 25 ng/well of a G12-polycistronic BRET sensor, 25 ng/well of a G13-polycistronic BRET sensor, 2.5 ng/well pIRESB RLucII-ERK-NLS-GFP BRET sensor, 2.5 ng β-arrestin 1-polycistronic BRET sensor, or 2.5 ng β-arrestin 2-polycistronic BRET sensor using Lipofectamine2000 at a ratio of 3:1 (Lipofectamine/plasmid DNA) in serum-free Opti-MEM ([44], [81]). Sixteen hours posttransfection, medium was replaced with DMEM supplemented with 10% FBS, HEPES, sodium pyruvate and G418 (200 μg mL^−1) and cell growth was resumed for another 16 h. Cells were washed with 150 μl PBS solution supplemented with 0.1% of glucose and then incubated with 80 μl of this solution for 2 h. Then, to evaluate Gq and G12 activation, 10 μl of a 1/20 dilution (diluted before use) of coelenterazine 400A (stock at 1 mM in ethanol) in Kreb's buffer and 10 μl of the 10× appropriate concentration of peptide were added, and the luminescence was evaluated with an Infinite M1000 PRO. […] Readings were performed after 5 min using an Infinite M1000 PRO. Filters were set at 410 nm and 515 nm for detecting the Renilla luciferase II (RlucII, donor) and green fluorescent protein 10 (GFP10, acceptor) light emission, respectively. BRET ratio was determined by calculating the ratio of the light emitted by GFP10 over the light emitted by the RlucII.

[3] = target: T1, hUT; assay: G12 activation, BRET biosensor, HEK 293-hUT cells; format: cell-based; design: expressed in transfected cells
Protocol: as §1
HEK 293-hUT cells were grown in DMEM culture media supplemented with 10% foetal bovine serum, HEPES, sodium pyruvate, and G418 (200 μg mL^−1). Passages were performed when cells reached 80% of confluency. Cells were initially plated in 96-well plates at a density of 10,000 cells/well. […] Then, to evaluate Gq and G12 activation, 10 μl of a 1/20 dilution (diluted before use) of coelenterazine 400A (stock at 1 mM in ethanol) in Kreb's buffer and 10 μl of the 10× appropriate concentration of peptide were added, and the luminescence was evaluated with an Infinite M1000 PRO. […] Readings were performed after 5 min using an Infinite M1000 PRO. […] BRET ratio was determined by calculating the ratio of the light emitted by GFP10 over the light emitted by the RlucII.

[4] = tested on: HEK 293 cells; assay: Cell proliferation, MTT assay, HEK 293 cells without receptor; format: cell-based; conditions: 10^−6 M
From the text: Each bar corresponds to the mean ± SEM obtained from three independent experiments conducted in triplicate.

[5] = tested on: HEK 293 cells; assay: EGFR transactivation (EGFR-GFP internalization, confocal microscopy), untransfected/mock HEK 293 cells; format: cell-based; conditions: HEK 293, 30 min
Protocol: Figure 7 UT-pepducins-mediated transactivation of EGFR following hUT activation. […] EGFR internalization, following hUT stimulation with various ligands for 30 min, was visualized using confocal microscopy. The images shown are from representative experiments repeated at least three times.
HEK 293 and HEK 293-hUT cells, transiently transfected with cDNA encoding fluorescently labeled EGFR (EGFR-GFP) (2 μg), were plated onto 35-mm glass-bottomed culture dishes (MatTek Corp). Following stimulation, cells were washed once with PBS and fixed in 4% paraformaldehyde for 15 min. To study the involvement of Gq in EGFR internalization, cells were treated with YM254890 (100 nM) for 1h prior peptide treatments. […] EGFR-GFP internalization was visualized using a combination of excitation (488 nm) and emission filters (499 and 520 nm). […]
endogenously expressed hUT activation in untransfected HEK 293 cells.HEK 293 expressing low level of wild type hUT and transfected […]
using confocal microscopy. The image shown are from representative experiments repeated at least three times. Arrows indicate cellular aggregates representing EGFR internalization.
(1 picture or pasted object on this page, not shown here)

CCCCCCCCCCCCCCCC(=O)N[C@@H](Cc1c[nH]c2ccccc12)C(=O)N[C@@H](CC(C)C)C(=O)N[C@@H](CO)C(=O)N[C@@H](CCC(N)=O)C(=O)N[C@@H](CCCNC(=N)N)C(=O)N[C@@H](C)C(=O)N[C@@H](CO)C(=O)N[C@@H](Cc1ccccc1)C(=O)N[C@@H](CCCCN)C(=O)N[C@@H](CCCNC(=N)N)C(=O)N[C@@H](C)C(=O)N[C@@H](CCCNC(=N)N)C(=O)N[C@@H](CCCNC(=N)N)C(N)=O [[Trp^1, Leu^2]hUT-Pep3] (Palmitoyl-WLSQRASFKRARR-NH2)
CD conformation in SDS ([1]; 0.1 mg mL^−1 SDS): β-sheet conformation (lower peak at 216 nm)
CD conformation in DPC ([1]; 0.5 mg mL^−1 DPC): less structured α-helix conformation
CD conformation in TFE ([1]; TFE 80%): fold as an α-helix (dark green, TFE 80%, lower peaks at 205 and 216 nm)
CD conformation in water ([1]; water): nonstructured shape (random coil)
EC50 ([2]; mean ± SEM, n = 3–5, read-out: β-arrestin 2 pEC50 (converted)): 0.0182 µM
Emax ([2]; percentage of the activation induced by hUII (10^−6 M), mean ± SEM, n = 3–5): 19 ± 3%
Emax at 1 µM ([3]; read-out: G12 activation, maximum efficacy at 10^−6 M): 5%
HEK 293 cell proliferation in absence of receptor [4]: completely abrogated

CC(C)[C@H](NC(=O)[C@@H]1CSSC[C@H](NC(=O)[C@H](CC(=O)O)NC(=O)[C@@H]2CCCN2C(=O)[C@@H](NC(=O)[C@@H](N)CCC(=O)O)[C@@H](C)O)C(=O)N[C@@H](Cc2ccccc2)C(=O)N[C@@H](Cc2c[nH]c3ccccc23)C(=O)N[C@@H](CCCCN)C(=O)N[C@@H](Cc2ccc(O)cc2)C(=O)N1)C(=O)O [hUII, urotensin II, reference compound]
EGFR internalization in untransfected/mock-transfected cells [5]: limited EGFR internalization can be observed in untransfected HEK 293 cells
Emax at 1 µM ([3]; read-out: G12 activation Emax): 98 ± 3%
HEK 293 cell proliferation in absence of receptor [4]: completely abrogated

CCCCCCCCCCCCCCCC(=O)N[C@@H](CCCNC(=N)N)C(=O)N1CCC[C@H]1C(=O)N[C@@H](CC(C)C)C(=O)N[C@@H](CC(=O)O)C(=O)N[C@H](C(=O)N[C@H](C(=O)N[C@@H](CCC(N)=O)C(=O)N[C@@H](CCCNC(=N)N)C(=O)N1CCC[C@H]1C(=O)N[C@@H](CCCCN)C(=O)NCC(=O)N[C@@H](Cc1ccc(O)cc1)C(N)=O)C(C)C)[C@@H](C)O [hUT-Pep2] (Palmitoyl-RPLDTVQRPKGY-NH2)
Emax at 1 µM ([2]; at 10^−6 M, percentage of the activation induced by hUII (10^−6 M), read-out: β-arrestin 2, maximum efficacy at 10^−6 M): ~15%
